Here are results for 1 compound from US10993950B2, “Medical device for the treatment of HPV cutaneous infections” (Poli MD S.R.L., priority 2017, dated 2021).

This data set has as its system SkinEthic RHE/S/17 reconstituted human epidermis. The data set can be described thus: TEM ultrastructure of artificial constructs of human skin (SkinEthic) after treatment with ASA compositions. Type of data set: cell-based. As to the method: Experiments Comparing Different ASA-Containing Compositions on the Ultrastructure of Artificial Constructs of Human Skin (SkinEthic)
Artificial Constructs of Human Skin
SkinEthic™ RHE/S/17 reconstituted human epidermis samples were used. This is an in vitro reconstituted human epidermis from normal human keratinocytes grown on a polycarbonate filter at the air-liquid interface.
The tissue samples were removed from the protective agarose and incubated in a multiwell with 6 wells with 1 ml of maintenance medium per well.
After about 14 hours of incubation with the described-above compositions, the epidermis inserts were cut and fixed in 500 microliters of fixative (glutaraldehyde 2.5%, paraformaldehyde 2% in cacodylate buffer 0.1 M at pH 7.4) for 2 hours at room temperature.
After trimming small rectangles of fabric, the samples were included in an epoxy resin. Ultra-thin slices were obtained and placed on copper screens, then stained with uranyl acetate and lead citrate.

On to `CC(O)CO` (stereo not drawn) [Composition 3, propylene glycol], for which the “overall appearance of the basal, spinous and granular layers (TEM)” value was “preserved and similar to the control”. Moreover, the “N. of corneocyte layers left after treatment” value (about 14 hours of incubation, TEM, not-treated control >25) is 19-20. Further, the “efficacy as judged from corneocyte layers left” value (verbal rating of Table 1 data) is “poor efficacy”.
